# System: jejunal mucosal 5-HT in mice (C57 BL6)
# Assay: Intestinal 5-HT depletion assay (Example B, single 150 mg/kg oral dose)
# Assay type: in vivo, mouse
# Settings: one day after oral administration of a single 150 mg/kg dose, P-value class (ANOVA)
# Procedure, shortened: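 C57 BL6 mice received one 150 mg/kg oral gavage dose; jejunal mucosa was homogenized in acidic trichloroacetic acid buffer and 5-HT measured by HPLC. Levels normalized to BCA protein, expressed as mean percent reduction versus vehicle ± SEM; ANOVA significance.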
row,Molecule,Efficacy (statistical significance of reduction of mucosal 5-HT concentrations relative to vehicle)
1,"CCOC(=O)[C@@H]1CC2(CCN(c3cc(O[C@H](c4ccc(Cl)cc4-n4ccc(C)n4)C(F)(F)F)nc(N)n3)CC2)CN1 [Example 63az, (S)-ethyl 8-(2-amino-6-((R)-1-(4-chloro-2-(3-methyl-1H-pyrazol-1-yl)phenyl)-2,2,2-trifluoroethoxy)pyrimidin-4-yl)-2,8-diazaspiro[4.5]decane-3-carboxylate]",*** (*** refers to P<0.005)
2,"CCOC(=O)[C@@H]1CC2(CCN(c3cc(O[C@H](c4ccc(-c5ccc(C)c(C)c5)cc4-n4ccc(C)n4)C(F)(F)F)nc(N)n3)CC2)CN1 [Example 63bd, (S)-ethyl 8-(2-amino-6-((R)-1-(3′,4′-dimethyl-3-(3-methyl-1H-pyrazol-1-yl)-[1,1′-biphenyl]-4-yl)-2,2,2-trifluoroethoxy)pyrimidin-4-yl)-2,8-diazaspiro[4.5]decane-3-carboxylate]",*** (*** refers to P<0.005)

# System: jejunal mucosal 5-HT in mice (C57 BL6)
# Assay: Reduction of mucosal 5-HT concentrations (Example C, repeated oral dosing)
# Assay type: in vivo, mouse
# Settings: (title), P-value class
# Procedure: The efficacy of the TPH1 inhibitors of the invention was assessed for the ability to decrease intestinal serotonin concentration in mice. Mice (C57 BL6) were administered an oral dose of 10 or 50 mg/kg of the test article in the evening. […] Following an overnight fast, each animal was euthanized by exsanguination under isoflurane anesthesia. Jejunal intestinal mucosa was isolated and homogenized in […] of a buffer containing 0.3M trichloroacetic acid, 0.1M sodium acetate, 10 mM EDTA, 20 mM sodium bisulfate and 50 mM ascorbic acid. Following centrifugation the 5-HT levels in the supernatants were measured by HPLC. The remaining mucosal pellet was solubilized overnight at 37° C. in a 0.1% sodium dodecyl sulfate buffer in 0.1N NaOH followed by determination of protein concentrations using a BCA protein assay (Pierce, Rockford, Ill.). 5-HT levels were normalized to protein and data were expressed as mean percent reduction of mucosal 5-HT levels relative to vehicle control±SEM (percent 5-HT reduction). All animal studies were carried out with protocols approved by the Institutional Animal Care and Use Committee. P-values, indicating statistical significance of the data (ANOVA) are provided in the table: * refers to P<0.05,** refers to P<0.01, *** refers to P<0.005, and **** refers to P<0.0005.
row,Molecule,Efficacy (statistical significance of reduction of mucosal 5-HT concentrations relative to vehicle)
1,"(S)-cyclopentyl 8-(2-amino-6-((R)-1-(4′-chloro-3-(3- methyl-1H-pyrazol-1-yl)-[1,1′-biphenyl]-4-yl)-2,2,2- trifluoroethoxy)pyrimidin-4-yl)-2,8- diazaspiro[4.5]decane-3-carboxylate [Example 69b]",*** (*** refers to P<0.005)

# Same assay, conditions: after three oral doses (first 10 or 50 mg/kg, then two doses of 50 mg/kg) (title), P-value class
row,Molecule,Efficacy (statistical significance of reduction of mucosal 5-HT concentrations relative to vehicle)
1,"CCOC(=O)[C@@H]1CC2(CCN(c3cc(O[C@H](c4cc(Cl)ccc4-c4cccc(S(C)(=O)=O)c4)C(F)(F)F)nc(N)n3)CC2)CN1 [Example 63ae, (S)-ethyl 8-(2-amino-6-((R)-1-(4-chloro-3′-(methylsulfonyl)-[1,1′-biphenyl]-2-yl)-2,2,2-trifluoroethoxy)pyrimidin-4-yl)-2,8-diazaspiro[4.5]decane-3-carboxylate]",*** (*** refers to P<0.005)
2,"CCOC(=O)[C@@H]1CC2(CCN(c3cc(O[C@H](c4ccc(Cl)cc4-c4cccc(C)c4)C(F)(F)F)nc(N)n3)CC2)CN1 [Example 63aq, (S)-ethyl 8-(2-amino-6-((R)-1-(5-chloro-3′-methyl-[1,1′-biphenyl]-2-yl)-2,2,2-trifluoroethoxy)pyrimidin-4-yl)-2,8-diazaspiro[4.5]decane-3-carboxylate]",*** (*** refers to P<0.005)
3,"CCOC(=O)[C@@H]1CC2(CCN(c3cc(O[C@H](c4ccc(Cl)cc4-c4cccc(C(F)(F)F)c4)C(F)(F)F)nc(N)n3)CC2)CN1 [Example 63ar, (S)-ethyl 8-(2-amino-6-((R)-1-(5-chloro-3′-(trifluoromethyl)-[1,1′-biphenyl]-2-yl)-2,2,2-trifluoroethoxy)pyrimidin-4-yl)-2,8-diazaspiro[4.5]decane-3-carboxylate]",**** (**** refers to P<0.0005)
4,"CCOC(=O)[C@@H]1CC2(CCN(c3cc(O[C@H](c4ccc(-c5ccc(Cl)c(Cl)c5)cc4-n4ccc(C)n4)C(F)(F)F)nc(N)n3)CC2)CN1 [Example 63aw, (S)-ethyl 8-(2-amino-6-((R)-1-(3′,4′-dichloro-3-(3-methyl-1H-pyrazol-1-yl)-[1,1′-biphenyl]-4-yl)-2,2,2-trifluoroethoxy)pyrimidin-4-yl)-2,8-diazaspiro[4.5]decane-3-carboxylate]",**** (**** refers to P<0.0005)
5,"CCOC(=O)[C@@H]1CC2(CCN(c3cc(O[C@H](c4ccc(Cl)cc4-n4ccc(C)n4)C(F)(F)F)nc(N)n3)CC2)CN1 [Example 63az, (S)-ethyl 8-(2-amino-6-((R)-1-(4-chloro-2-(3-methyl-1H-pyrazol-1-yl)phenyl)-2,2,2-trifluoroethoxy)pyrimidin-4-yl)-2,8-diazaspiro[4.5]decane-3-carboxylate]",*** (*** refers to P<0.005)
6,"CCOC(=O)[C@@H]1CC2(CCN(c3cc(O[C@H](c4ccc(-c5ccc(C)c(C)c5)cc4-n4ccc(C)n4)C(F)(F)F)nc(N)n3)CC2)CN1 [Example 63bd, (S)-ethyl 8-(2-amino-6-((R)-1-(3′,4′-dimethyl-3-(3-methyl-1H-pyrazol-1-yl)-[1,1′-biphenyl]-4-yl)-2,2,2-trifluoroethoxy)pyrimidin-4-yl)-2,8-diazaspiro[4.5]decane-3-carboxylate]",*** (*** refers to P<0.005)
7,"CCOC(=O)[C@@H]1CC2(CCN(c3cc(O[C@H](c4ccc(-c5ccc(OC(C)C)cc5)cc4-n4ccc(C)n4)C(F)(F)F)nc(N)n3)CC2)CN1 [Example 63cn, (S)-ethyl 8-(2-amino-6-((R)-2,2,2-trifluoro-1-(4′-isopropoxy-3-(3-methyl-1H-pyrazol-1-yl)-[1,1′-biphenyl]-4-yl)ethoxy)pyrimidin-4-yl)-2,8-diazaspiro[4.5]decane-3-carboxylate]",**** (**** refers to P<0.0005)
8,"CCOC(=O)[C@@H]1CC2(CCN(c3cc(O[C@H](c4ccc(Cl)cc4-c4cccc(C(C)(C)C)c4)C(F)(F)F)nc(N)n3)CC2)CN1 [Example 63el, (S)-ethyl 8-(2-amino-6-((R)-1-(3′-(tert-butyl)-5-chloro-[1,1 biphenyl]-2-yl)-2,2,2-trifluoroethoxy)pyrimidin-4-yl)-2,8-diazaspiro[4.5]decane-3-carboxylate]",*** (*** refers to P<0.005)
9,"CCOC(=O)[C@@H]1CC2(CCN(c3cc(O[C@H](c4ccccc4-c4cccc(Cl)c4)C(F)(F)F)nc(N)n3)CC2)CN1 [Example 63eo, (S)-ethyl 8-(2-amino-6-((R)-1-(3′-chloro-[1,1′-biphenyl]-2-yl)-2,2,2-trifluoroethoxy)pyrimidin-4-yl)-2,8-diazaspiro[4.5]decane-3-carboxylate]",*** (*** refers to P<0.005)
10,"CCOC(=O)[C@@H]1CC2(CCN(c3cc(O[C@H](c4ccc(Cl)cc4-c4cccc(OC)c4)C(F)(F)F)nc(N)n3)CC2)CN1 [Example 63ep, (S)-ethyl 8-(2-amino-6-((R)-1-(5-chloro-3′-methoxy-[1,1′-biphenyl]-2-yl)-2,2,2-trifluoroethoxy)pyrimidin-4-yl)-2,8-diazaspiro[4.5]decane-3-carboxylate]",*** (*** refers to P<0.005)
11,"CCOC(=O)[C@@H]1CC2(CCN(c3cc(O[C@H](c4ccc(Cl)cc4-c4cccc(F)c4)C(F)(F)F)nc(N)n3)CC2)CN1 [Example 63ev, (S)-ethyl 8-(2-amino-6-((R)-1-(5-chloro-3′-fluoro-[1,1′-biphenyl]-2-yl)-2,2,2-trifluoroethoxy)pyrimidin-4-yl)-2,8-diazaspiro[4.5]decane-3-carboxylate]",*** (*** refers to P<0.005)
12,"CCOC(=O)[C@@H]1CC2(CCN(c3cc(O[C@H](c4ccc(Cl)cc4-c4cc(F)cc(F)c4)C(F)(F)F)nc(N)n3)CC2)CN1 [Example 63ey, (S)-ethyl 8-(2-amino-6-((R)-1-(5-chloro-3′,5′-difluoro-[1,1′-biphenyl]-2-yl)-2,2,2-trifluoroethoxy)pyrimidin-4-yl)-2,8-diazaspiro[4.5]decane-3-carboxylate]",** (** refers to P<0.01)
13,"CCOC(=O)[C@@H]1CC2(CCN(c3cc(O[C@H](c4ccc(Cl)cc4-c4cccnc4)C(F)(F)F)nc(N)n3)CC2)CN1 [Example 63fo, (S)-ethyl 8-(2-amino-6-((R)-1-(4-chloro-2-(pyridin-3-yl)phenyl)-2,2,2-trifluoroethoxy)pyrimidin-4-yl)-2,8-diazaspiro[4.5]decane-3-carboxylate]",* (* refers to P<0.05)
14,"CCOC(=O)[C@@H]1CC2(CCN(c3cc(O[C@H](c4ccc(-c5ccc(OC)cc5)cc4-n4ccc(C)n4)C(F)(F)F)nc(N)n3)CC2)CN1 [Example 63ha, (S)-ethyl 8-(2-amino-6-((R)-2,2,2-trifluoro-1-(4′-methoxy-3-(3-methyl-1H-pyrazol-1-yl)-[1,1′-biphenyl]-4-yl)ethoxy)pyrimidin-4-yl)-2,8-diazaspiro[4.5]decane-3-carboxylate]",** (** refers to P<0.01)
15,"CCOC(=O)[C@@H]1CC2(CCN(c3cc(O[C@H](c4ccc(Cl)cc4-c4ccccc4)C(F)(F)F)nc(N)n3)CC2)CN1 [Example 63i, (S)-ethyl 8-(2-amino-6-((R)-1-(5-chloro-[1,1′-biphenyl]-2-yl)-2,2,2-trifluoroethoxy)pyrimidin-4-yl)-2,8-diazaspiro[4.5]decane-3-carboxylate]",*** (*** refers to P<0.005)
16,"CC(C)OC(=O)[C@@H]1CC2(CCN(c3cc(O[C@H](c4ccc(Cl)cc4-c4ccccc4)C(F)(F)F)nc(N)n3)CC2)CN1 [Example 69a, (S)-isopropyl 8-(2-amino-6-((R)-1-(5-chloro-[1,1′-biphenyl]-2-yl)-2,2,2-trifluoroethoxy)pyrimidin-4-yl)-2,8-diazaspiro[4.5]decane-3-carboxylate]",*** (*** refers to P<0.005)
17,"CCCOC(=O)[C@@H]1CC2(CCN(c3cc(O[C@H](c4ccc(Cl)cc4-c4ccccc4)C(F)(F)F)nc(N)n3)CC2)CN1 [Example 69c, (S)-propyl 8-(2-amino-6-((R)-1-(5-chloro-[1,1′-biphenyl]-2-yl)-2,2,2-trifluoroethoxy)pyrimidin-4-yl)-2,8-diazaspiro[4.5]decane-3-carboxylate]",*** (*** refers to P<0.005)
